Source: US20230147257A1 (DONG-A ST CO., LTD., priority 2020, published 2023)
pEC50, pIC50: −log10 of the molar value. Like-named read-outs stand apart in the source and are kept apart here.

Experiments:
Format in all cases: cell-based
AhR [1] = molecular target: T1, AhR (Homo sapiens, UniProt P35869); test: In vitro assay 4: endogenous AhR activity assay (CYP1A1 and CYP1B1 mRNA, qRT-PCR, HepG2 cells); settings: TCDD 10 nM with compound 123 nM, 4 hours, mRNA relative to β-actin
T1 construct: host or cells: HepG2
T1 sequence (P35869 11-848): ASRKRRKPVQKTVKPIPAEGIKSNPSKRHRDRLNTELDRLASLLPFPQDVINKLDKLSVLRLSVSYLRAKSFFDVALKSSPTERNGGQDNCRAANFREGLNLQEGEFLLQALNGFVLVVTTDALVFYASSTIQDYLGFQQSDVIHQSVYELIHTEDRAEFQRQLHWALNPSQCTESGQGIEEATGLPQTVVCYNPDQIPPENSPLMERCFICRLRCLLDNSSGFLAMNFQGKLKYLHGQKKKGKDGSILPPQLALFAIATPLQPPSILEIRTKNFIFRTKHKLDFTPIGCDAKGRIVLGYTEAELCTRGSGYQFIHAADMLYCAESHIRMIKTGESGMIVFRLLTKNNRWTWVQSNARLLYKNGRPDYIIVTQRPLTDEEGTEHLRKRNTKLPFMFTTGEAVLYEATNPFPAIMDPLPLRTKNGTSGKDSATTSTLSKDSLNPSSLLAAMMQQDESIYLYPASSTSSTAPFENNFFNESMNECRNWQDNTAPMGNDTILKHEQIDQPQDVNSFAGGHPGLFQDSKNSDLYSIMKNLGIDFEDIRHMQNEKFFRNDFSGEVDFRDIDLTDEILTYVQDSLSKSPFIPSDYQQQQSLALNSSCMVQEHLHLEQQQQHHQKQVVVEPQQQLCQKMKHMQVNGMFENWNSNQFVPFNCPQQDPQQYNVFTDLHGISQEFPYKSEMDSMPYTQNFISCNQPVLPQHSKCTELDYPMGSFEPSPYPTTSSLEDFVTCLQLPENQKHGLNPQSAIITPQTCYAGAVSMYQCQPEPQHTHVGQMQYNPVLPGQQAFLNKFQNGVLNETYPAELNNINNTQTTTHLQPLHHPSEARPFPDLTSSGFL
Protocol: In Vitro Assay 4: Endogenous AhR Activity Assay
HepG2 cells were seeded in 12-well plate (3×10^5 cells/well). A day after seeding, the cells were treated with TCDD (10 nM) alone or with compounds (123 nM) for 4 hours. Total RNA was extracted using Trizol (Thermo Fisher Scientific). cDNA synthesis and quantitative RT-PCR (qRT-PCR) assays were performed using PrimeScript™ RT Master Mix (TAKARA) and TB Green™ Premix Ex Taq™ II (TAKARA) in accordance with manufacturer's instruction. For the measurement of endogenous AhR activity, relative mRNA levels of CYP1A1 and CYP1B1 were quantitated relative to β(beta)-actin mRNA by the comparative Ct (ΔΔCt) method. The percent inhibitions were calculated according to: […]

AhR [2] = molecular target: T1, AhR; test: In vitro assay 3: XRE-luciferase reporter assay, agonism in human cell line (HepG2); settings: HepG2 XRE-Luc, tryptophan free medium, test compound alone, 6 hours
From the text: In Vitro XRE-Luciferase Reporter Assay (In Vitro Assay 1, 2, 3)
AhR activation leads the induction of target gene expression such as CYP1A1 and CYP1B1 by AhR binding to AhR-responsive DNA elements also known as xenobiotics responsive elements (XRE). The assay for measuring AhR activity herein is the luciferase assay using cell lines transfected with luciferase reporter plasmid containing XREs at the upstream of the reporter gene. Cells transfected with XRE-luciferase reporter (XRE-Luc) plasmid drive luciferase activity reflecting activation and inhibition of AhR in the cells. In addition to transfection with XRE-reporter vector, cells were co-transfected with Nano-luciferase reporter gene construct (Nano-Luc) containing constitutively active promoter as internal control. Kynurenine (an endogenous AhR agonist) was used to stimulate cells to test antagonistic properties of the compounds. The half-maximal inhibitory concentration (IC50) or half-maximal effective concentration (EC50) value was calculated using nonlinear regression (four parameters) with Prism8.0 software (GraphPad).
In Vitro Assay 3: Agonism in Human Cell Line
HepG2 (human hepatoma cell line) cells co-transfected with XRE-Luc and Nano-Luc plasmids were plated in tryptophan free medium containing 1% of dialyzed fetal bovine serum and incubated overnight at 37° C. in a CO2 incubator. After 24 hours, cells were treated for 6 hours with test compounds or not. Firefly luciferase and Nano-luciferase activity was measured using Nano-glo Luciferase kit (Promega) and relative luciferase activity (Firefly/Nano-Luc) was used to calculate EC50 values. As a positive control, cells were incubated with TCDD. (EC50 Values are grouped as A, B, C and D, whereby A: EC50<0.1 μM; B: 0.1<EC50<1.0 μM; C: 1.0<EC50<10 μM; D: EC50>10 μM)

AhR [3] = molecular target: T1, AhR; test: In vitro assay 1: XRE-luciferase reporter assay, antagonism in human cell line (HepG2); settings: HepG2 XRE-luciferase, cells treated with kynurenine 200 μM (no *), 6 hours; read-out: Assay 1: AhR-Luc Human Antagonism (IC50)
Outline: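 HepG2 cells carrying XRE-firefly luciferase (transient or stable) plus constitutive Nano-Luc control, stimulated 6 h with kynurenine (50 or 200 μM) with or without compound. Firefly/Nano-Luc ratio normalized to kynurenine-alone (maximum) and vehicle (minimum); IC50 by four-parameter nonlinear regression.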

CC(CO)n1cnc2c(-c3cccnc3)nc(-c3ccc(Cl)cc3)cc2c1=O (centres unmarked) [Example 46, 6-(4-chlorophenyl)-3-(1-hydroxypropan-2-yl)-8-(pyridin-3-yl)pyrido[3,4-d]pyrimidin-4(3H)-one]
inhibition at 0.123 µM (AhR [1]; read-out: CYP1A1 (% Inhibition)): 90.7%
inhibition at 0.123 µM (AhR [1]; read-out: CYP1B1 (% Inhibition)): 99.1%
pEC50 (AhR [2]; read-out: Assay 3: AhR-Luc Human Agonism (EC50)): < 4.52
EC50 (AhR [2]; read-out: Assay 3: AhR-Luc Human Agonism (EC50, nM), class in brackets): > 10000 nM
pIC50 (AhR [3]): > 8.00
